Read-outs that look alike come from different tables or passages of the source.
Legend:
Type in all cases: cell-based
[1] = system: Pseudomonas aeruginosa (P. aeruginosa—ATCC #15442); assay: Synergy test, microtiter plate high resolution MIC assay, bacterium; design: key to SI (calculated synergy index) / SI (synergy index): SI = Qa/QA + Qb/QB (mixture vs. alone end-point concentrations); details: P. aeruginosa 15442, M9GY; for Qb: alone or mixed with BIT; for Qb (second component at end point, MIC) / MIC: alone where Qa = 0; for MIC: Pseudomonas aeruginosa
Excerpt: (§1) One measure of synergism is the industrially accepted method described by Kull, F. C.; Eisman, P. C.; Sylwestrowicz, H. D. and Mayer, R. L., in Applied Microbiology 9:538-541 (1961), using the ratio determined by the formula: Qa/QA+Qb/QB=Synergy Index (“SI”) wherein: • QA=concentration of compound A (first component) in ppm, acting alone, which produced an end point (MIC of Compound A). • Qa=concentration of compound A in ppm, in the mixture, which produced an end point. • QB=concentration of compound B (second component) in ppm, acting alone, which produced an end point (MIC of Compound B). • Qb=concentration of compound B in ppm, in the mixture, which produced an end point.
(§2) When the sum of Qa/QA and Qb/QB is greater than one, antagonism is indicated. […] The lower the SI, the greater the synergy shown by that particular mixture. The minimum inhibitory concentration (MIC) of a microbicide is the lowest concentration tested under a specific set of conditions that prevents the growth of added microorganisms.
(§3) Synergy tests were conducted using standard microtiter plate assays with media designed for optimal growth of the test microorganism. Soybean Casein Digest Broth (Tryptic Soy Broth, TSB medium) or minimal salt medium supplemented with 0.2% glucose and 0.1% yeast extract (M9GY medium) was used for testing bacteria; Potato Dextrose Broth (PDB medium) was used for testing yeast and mold. In this method, a wide range of combinations of microbicides was tested by conducting high resolution MIC assays in the presence of various concentrations of MI. High resolution MICs were determined by adding varying amounts of microbicide to one column of a microtitre plate and doing subsequent ten-fold dilutions using an automated liquid handling system to obtain a series of endpoints ranging from 2 ppm to 10,000 ppm active ingredient.
(§4) For MI combinations, the synergy of the combinations of the present invention was determined against two bacteria, Escherichia coli (E. coli—ATCC #8739) or Pseudomonas aeruginosa (P. aeruginosa—ATCC #15442), a yeast, Candida albicans (C. albicans—ATCC 10231), and a mold, Aspergillus niger (A. niger—ATCC 16404). The bacteria were used at a concentration of about 5×10^6 bacteria per mL and the yeast and mold at 5×10^5 fungi per mL. These microorganisms are representative of natural contaminants in many consumer and industrial applications. […] (bacteria).
(§5) For BIT combinations, the synergy of the combinations of the present invention was determined against a bacterium, Pseudomonas aeruginosa (P. aeruginosa—ATCC #15442), a yeast, Candida albicans (C. albicans—ATCC 10231), and a mold, Aspergillus niger (A. niger—ATCC 16404). The bacteria were used at a concentration of about 5×10^6 bacteria per mL and the yeast and mold at 5×10^5 fungi per mL. These microorganisms are representative of natural contaminants in many consumer and industrial applications. […] (yeast and mold) or 30° C. (bacteria).

[2] = system: Escherichia coli (E. coli—ATCC #8739); assay: as above; details: E. coli 8739, M9GY; for Qb: alone or mixed with BIT
Excerpt: as §1, §2
as §3, with “In this method, a wide range of combinations of microbicides was tested by conducting high resolution MIC assays in the presence of various concentrations of MI.” left out
as §4

[3] = system: Candida albicans (C. albicans—ATCC 10231); assay: Synergy test, microtiter plate high resolution MIC assay, yeast; details: C. albicans 10231, PDB; for Qb: alone or mixed with BIT
Excerpt: as §1, §2, §3, §4, §5

[4] = system: Aspergillus niger (A. niger—ATCC 16404); assay: Synergy test, microtiter plate high resolution MIC assay, mold; design: key to SI (calculated synergy index) / SI (synergy index): SI = Qa/QA + Qb/QB (mixture vs. alone end-point concentrations); details: for MIC: Aspergillus niger
Excerpt: as §1, §2, §3, §4, §5

[5] = Imidalozidinyl urea concentration giving end point (MIC), 48 hours
[6] = synergy index BIT + Imidalozidinyl urea, 48 hours
[7] = Table 25, sodium dehydroacetic acid with BIT, 24 hours, alone where Qa = 0
[8] = glutaraldehyde concentration giving end point (MIC), 24 hours
[9] = synergy index BIT + glutaraldehyde, 24 hours
[10] = caprylyl glycol concentration giving end point (MIC), 24 hours
[11] = synergy index BIT + caprylyl glycol, 24 hours

**Q.** Which Qb [1, 5] does the source give for “imidazolidinyl urea [Imidalozidinyl urea]” here?
**A.** 400 ppm

**Q.** What about the SI [1, 6] of the same compound?
**A.** 1.00

**Q.** And the Qb [2, 5]?
**A.** 400 ppm

**Q.** And the SI [2, 6]?
**A.** 1.00

**Q.** And the Qb ([3]; Imidalozidinyl urea concentration giving end point (MIC), 24 hours)?
**A.** 10000 ppm

**Q.** What about the SI ([3]; synergy index BIT + Imidalozidinyl urea, 24 hours) of the same compound?
**A.** 1.00

**Q.** What about the Qb ([4]; Imidalozidinyl urea concentration giving end point (MIC), alone or mixed with BIT, A. niger 16404, PDB, 3 days) of the same compound?
**A.** 8000 ppm

**Q.** What about the SI ([4]; synergy index BIT + Imidalozidinyl urea, A. niger 16404, PDB, 3 days) of the same compound?
**A.** 1.00

**Q.** zinc pyrithione was tested. Which “SI (synergy index)” value ([1]; Table 28, 48 hours) did it give?
**A.** 1.00

**Q.** And the “Qb (second component at end point, MIC)” value ([1]; Table 28, zinc pyrithione with BIT, 48 hours)?
**A.** 80 ppm

**Q.** What about the “SI (synergy index)” value ([4]; Table 28, A. niger 16404, PDB, 1 week) of the same compound?
**A.** 1.00

**Q.** What about the “Qb (second component at end point, MIC)” value ([4]; Table 28, zinc pyrithione with BIT, A. niger 16404, PDB, 1 week, alone where Qa = 0) of the same compound?
**A.** 8 ppm

**Q.** Which Qb ([1]; methylparaben concentration giving end point (MIC), 48 hours) does the source give for COC(=O)c1ccc(O)cc1 [methylparaben] here?
**A.** 3000 ppm

**Q.** What about the SI ([1]; synergy index BIT + methylparaben, 48 hours) of the same compound?
**A.** 1.00

**Q.** What about the MIC ([4]; ATCC16404, 96 h, read-out: Qb) of the same compound?
**A.** 800 µg/mL

**Q.** And the SI ([4]; synergy index BIT + methylparaben, A. niger 16404, PDB, 4 days)?
**A.** 1.00

**Q.** What does the source list for CCOC(=O)c1ccc(O)cc1 [ethylparaben]?
**A.** Qb ([1]; ethylparaben concentration giving end point (MIC), 48 hours): 3000 ppm; SI ([1]; synergy index BIT + ethylparaben, 48 hours): 1.00; MIC ([4]; ATCC16404, 72 h, ethylparaben concentration giving end point (MIC), alone or mixed with BIT, A. niger 16404, PDB, 3 days, read-out: Qb): 2000 µg/mL; SI ([4]; synergy index BIT + ethylparaben, A. niger 16404, PDB, 3 days): 1.00

**Q.** O=C([O-])CNCO.[Na+] [Sodium hydroxymethylglycinate] was tested. Which MIC ([1]; ATCC15442, 24 h, read-out: Qb (second component at end point, MIC), Table 27, Sodium hydroxymethylglycinate with BIT, 24 hours) did it give?
**A.** 2000 µg/mL

**Q.** What about the “SI (synergy index)” value ([1]; Table 27, 24 hours) of the same compound?
**A.** 1.00

**Q.** What about the MIC ([4]; ATCC16404, 72 h, read-out: Qb (second component at end point, MIC)) of the same compound?
**A.** 600 µg/mL

**Q.** What about the “SI (synergy index)” value ([4]; Table 27, A. niger 16404, PDB, 3 days) of the same compound?
**A.** 1.00

**Q.** Which results are given for O=C(O)CN(CCN(CC(=O)O)CC(=O)O)CC(=O)O [EDTA, ethylenediamine tetraacetic acid]?
**A.** MIC ([4]; ATCC16404, 96 h, read-out: Qb): 2000 µg/mL; SI ([4]; synergy index BIT + EDTA, A. niger 16404, PDB, 4 days): 1.00

**Q.** Which “MIC of component acting alone (QA / QB)” value ([1]; 48 hours) does the source give for CC(=O)c1c([O-])cc(C)oc1=O.[Na+] [Sodium dehydroacetic acid] here?
**A.** 10000 ppm

**Q.** What about the “SI (synergy index)” value ([1]; Table 25, 24 hours) of the same compound?
**A.** 1.00

**Q.** And the “Qb (second component at end point, MIC)” value ([1]; Table 25, sodium dehydroacetic acid with BIT, 24 hours)?
**A.** 10000 ppm

**Q.** And the “MIC of component acting alone (QA / QB)” value ([2]; 24 hours)?
**A.** 10000 ppm

**Q.** And the “SI (synergy index)” value ([2]; Table 25, 24 hours)?
**A.** 1.00

**Q.** What about the “Qb (second component at end point, MIC)” value [2, 7] of the same compound?
**A.** 10000 ppm

**Q.** What about the “MIC of component acting alone (QA / QB)” value ([3]; 24 hours) of the same compound?
**A.** 40 ppm

**Q.** What about the “SI (synergy index)” value ([3]; Table 25, 24 hours) of the same compound?
**A.** 1.00

**Q.** What about the “Qb (second component at end point, MIC)” value [3, 7] of the same compound?
**A.** 30 ppm

**Q.** And the “MIC of component acting alone (QA / QB)” value ([4]; A. niger 16404, PDB, 4 days)?
**A.** 80 ppm

**Q.** What about the “SI (synergy index)” value ([4]; Table 25, A. niger 16404, PDB, 1 week) of the same compound?
**A.** 1.00

**Q.** And the “Qb (second component at end point, MIC)” value ([4]; Table 25, sodium dehydroacetic acid with BIT, A. niger 16404, PDB, 1 week, alone where Qa = 0)?
**A.** 200 ppm

**Q.** For CNC(=O)c1ccccc1SSc1ccccc1C(=O)NC [2,2′-dithiobis(N-methylbenzamide)], which Qb ([1]; 2,2′-dithiobis(N-methylbenzamide) concentration giving end point (MIC), 48 hours) is on record?
**A.** 200 ppm

**Q.** What about the SI ([1]; synergy index BIT + 2,2′-dithiobis(N-methylbenzamide), 48 hours) of the same compound?
**A.** 1.00

**Q.** What about the MIC ([4]; ATCC16404, 72 h, 2,2′-dithiobis(N-methylbenzamide) concentration giving end point (MIC), alone or mixed with BIT, A. niger 16404, PDB, 3 days, read-out: Qb) of the same compound?
**A.** 1000 µg/mL

**Q.** What about the SI ([4]; synergy index BIT + 2,2′-dithiobis(N-methylbenzamide), A. niger 16404, PDB, 3 days) of the same compound?
**A.** 1.00

**Q.** How did the Qb ([1]; glutaraldehyde concentration giving end point (MIC), 48 hours) turn out when O=CCCCC=O [glutaraldehyde] was run?
**A.** 60 ppm

**Q.** And the SI ([1]; synergy index BIT + glutaraldehyde, 48 hours)?
**A.** 1.00

**Q.** And the Qb [2, 8]?
**A.** 50 ppm

**Q.** And the SI [2, 9]?
**A.** 1.00

**Q.** And the Qb [3, 8]?
**A.** 30 ppm

**Q.** What about the SI [3, 9] of the same compound?
**A.** 1.00

**Q.** And the MIC ([4]; ATCC16404, 72 h, glutaraldehyde concentration giving end point (MIC), alone or mixed with BIT, A. niger 16404, PDB, 3 days, read-out: Qb)?
**A.** 400 µg/mL

**Q.** What about the SI ([4]; synergy index BIT + glutaraldehyde, A. niger 16404, PDB, 3 days) of the same compound?
**A.** 1.00

**Q.** Which results are given for CCCCCCC(O)CO (stereo not shown) [Caprylyl glycol]?
**A.** MIC of component acting alone (QA / QB) ([1]; 48 hours): 3000 ppm; Qb [1, 10]: 3000 ppm; SI [1, 11]: 1.00; MIC of component acting alone (QA / QB) ([2]; 24 hours): 2000 ppm; Qb [2, 10]: 2000 ppm; SI [2, 11]: 1.00; MIC of component acting alone (QA / QB) ([3]; 48 hours): 2000 ppm; Qb [3, 10]: 2000 ppm; SI [3, 11]: 1.00; MIC of component acting alone (QA / QB) ([4]; A. niger 16404, PDB, 1 week): 3000 ppm; Qb ([4]; caprylyl glycol concentration giving end point (MIC), alone or mixed with BIT, A. niger 16404, PDB, 1 week): 2000 ppm; SI ([4]; synergy index BIT + caprylyl glycol, A. niger 16404, PDB, 1 week): 1.00

**Q.** What does the source list for Benzalkonium chloride?
**A.** SI (calculated synergy index) ([1]; Table 8, 48 hours): 1.00; Qb: end-point activity (MIC) of second component in the mixture (alone, QB, where Qa = 0) ([1]; Table 8, 48 hours, B = Benzalkonium chloride): 40 ppm; SI (calculated synergy index) ([4]; Table 8, A. niger 16404, PDB, 1 week): 1.00; Qb: end-point activity (MIC) of second component in the mixture (alone, QB, where Qa = 0) ([4]; Table 8, A. niger 16404, PDB, 1 week, B = Benzalkonium chloride): 200 ppm

**Q.** Which MIC ([1]; ATCC15442, Table 23, propylparaben with BIT, 24 hours, read-out: Qb (second component at end point, MIC)) does the source give for CCCOC(=O)c1ccc(O)cc1 [propylparaben] here?
**A.** 10000 µg/mL

**Q.** What about the “SI (synergy index)” value ([1]; Table 23, 24 hours) of the same compound?
**A.** 1.00

**Q.** What about the MIC ([4]; ATCC16404, 72 h, Table 23, propylparaben with BIT, A. niger 16404, PDB, 3 days, alone where Qa = 0, read-out: Qb (second component at end point, MIC)) of the same compound?
**A.** 1000 µg/mL

**Q.** What about the “SI (synergy index)” value ([4]; Table 23, A. niger 16404, PDB, 3 days) of the same compound?
**A.** 1.00

Source: patent US7468384B2, “Microbicidal composition” (Rohm and Haas Company, priority 2004, dated 2008)
